Test results published in patent US20230123334A1, “AMINO LIPID COMPOUND, PREPARATION METHOD THEREFOR, AND APPLICATION THEREOF” (SHENZHEN SHENXIN BIOTECHNOLOGY CO., LTD., priority 2020, published 2023).

Assays:
HEK293 cells [1] = assay: Preliminary screening as mRNA vectors, EGFP mRNA transfection of HEK293 cells; format: cell-based; details: HEK293 cells, 96-well plates, EGFP mRNA 50 ng per well; percentage of GFP fluorescent cells relative to total number of cells (Hoechst)
Outline: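 HEK293 cells in DMEM plus 10% FBS transfected in 96-well format with 50 ng EGFP mRNA per well; Lipofectamine2000 served as positive control. Read-out is the percentage of GFP-fluorescent cells among total cells, counted by Hoechst nuclear stain.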

HEK293 cells [2] = assay: Preliminary screening as DNA vectors, GFP transfection of HEK293 cells; format: cell-based; details: HEK293 cells; lipid/DOPE liposome with 75 ng plasmid DNA (psin-EGFP-IRES-Puro); number of cells expressing GFP divided by total number of nuclei (Hoechst)
Outline: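 HEK293 cells in DMEM/10% FBS transfected with 75 ng EGFP plasmid per well complexed with amino lipid/DOPE liposomes in pH 5.6 sodium acetate. Hoechst nuclear stain added 20-24 h post-transfection, then cells cultured another 20-24 h. Confocal imaging gives GFP-positive cells as % of total nuclei.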

SMILES | Absolute mRNA transfection efficiency in HEK293 cells (HEK293 cells [1]) [%] | Absolute DNA transfection efficiency in HEK293 cells (HEK293 cells [2]) [%]
CCCCCCCCCCCCCCCNc1nc(NCCCCCCCC)nc(NCCN(C)C)n1 [Compound N8N15D1] | 0.7 | 1.5
CCCCCCCCCCCCCCCNc1nc(NCCCCCCCC)nc(NCCN2CCOCC2)n1 [Compound N8N15D2] | 0.0 | 0.0
CCCCCCCCCCCCCCCNc1nc(NCCCCCCCC)nc(NCCN2CCCC2)n1 [Compound N8N15D3] | 7.6 | 1.5
CCCCCCCCCCCCCCCNc1nc(NCCCCCCCC)nc(NCCN2CCCCC2)n1 [Compound N8N15D4] | 0.0 | 0.5
CCCCCCCCCCCCCCCNc1nc(NCCCCCCCC)nc(NCCN2CCN(C)CC2)n1 [Compound N8N15D5] | 0.2 | 0.6
CCCCCCCCCCCCCCCNc1nc(NCCCCCCCC)nc(NCCCN(C)C)n1 [Compound N8N15D6] | 0.0 | 1.3
CCCCCCCCCCCCCCCNc1nc(NCCCCCCCC)nc(NCCN(CC)CC)n1 [Compound N8N15D7] | 0.0 | 0.0
CCCCCCCCCCCCCCCNc1nc(NCCCCCCCC)nc(NCCCN2CCOCC2)n1 [Compound N8N15D8] | 0.3 | 1.1
CCCCCCCCCCCCCCCNc1nc(NCCCCCCCC)nc(NCCCN2CCN(C)CC2)n1 [Compound N8N15D9] | 0.1 | 0.0
CCCCCCCCCCCCCCCNc1nc(NCCCCCCCC)nc(NCC2CCN(C)CC2)n1 [Compound N8N15D10] | 3.3 | 3.2
CCCCCCCCCCCCCCCCNc1nc(NCCCCCCCC)nc(NCCN(C)C)n1 [Compound N8N16D1] | 4.6 | 3.8
CCCCCCCCCCCCCCCCNc1nc(NCCCCCCCC)nc(NCCN2CCOCC2)n1 [Compound N8N16D2] | 0.2 | 0.8
CCCCCCCCCCCCCCCCNc1nc(NCCCCCCCC)nc(NCCN2CCCC2)n1 [Compound N8N16D3] | 13.8 | 8.5
CCCCCCCCCCCCCCCCNc1nc(NCCCCCCCC)nc(NCCN2CCCCC2)n1 [Compound N8N16D4] | 2.3 | 5.3
CCCCCCCCCCCCCCCCNc1nc(NCCCCCCCC)nc(NCCN2CCN(C)CC2)n1 [Compound N8N16D5] | 0.3 | 0.2
CCCCCCCCCCCCCCCCNc1nc(NCCCCCCCC)nc(NCCCN(C)C)n1 [Compound N8N16D6] | 1.5 | 2.4
CCCCCCCCCCCCCCCCNc1nc(NCCCCCCCC)nc(NCCN(CC)CC)n1 [Compound N8N16D7] | 0.3 | 3.1
CCCCCCCCCCCCCCCCNc1nc(NCCCCCCCC)nc(NCCCN2CCOCC2)n1 [Compound N8N16D8] | 0.2 | 2.3
CCCCCCCCCCCCCCCCNc1nc(NCCCCCCCC)nc(NCCCN2CCN(C)CC2)n1 [Compound N8N16D9] | 0.5 | 1.0

SMILES | Absolute mRNA transfection efficiency in HEK293 cells (HEK293 cells [1]) [%] | Absolute DNA transfection efficiency in HEK293 cells (HEK293 cells [2]) [%]
CCCCCCCCCCCCCCCCNc1nc(NCCCCCCCC)nc(NCC2CCN(C)CC2)n1 [Compound N8N16D10] | 1.5 | 3.4
CCCCCCCCCCCCCCCCCCNc1nc(NCCCCCCCC)nc(NCCN(C)C)n1 [Compound N8N18D1] | 6.4 | 1.8
CCCCCCCCCCCCCCCCCCNc1nc(NCCCCCCCC)nc(NCCN2CCOCC2)n1 [Compound N8N18D2] | 7.0 | 1.7
CCCCCCCCCCCCCCCCCCNc1nc(NCCCCCCCC)nc(NCCN2CCCC2)n1 [Compound N8N18D3] | 39.9 | 9.8
CCCCCCCCCCCCCCCCCCNc1nc(NCCCCCCCC)nc(NCCN2CCCCC2)n1 [Compound N8N18D4] | 29.2 | 8.2
CCCCCCCCCCCCCCCCCCNc1nc(NCCCCCCCC)nc(NCCN2CCN(C)CC2)n1 [Compound N8N18D5] | 0.9 | 1.9
CCCCCCCCCCCCCCCCCCNc1nc(NCCCCCCCC)nc(NCCCN(C)C)n1 [Compound N8N18D6] | 4.1 | 2.2
CCCCCCCCCCCCCCCCCCNc1nc(NCCCCCCCC)nc(NCCN(CC)CC)n1 [Compound N8N18D7] | 9.3 | 2.7
CCCCCCCCCCCCCCCCCCNc1nc(NCCCCCCCC)nc(NCCCN2CCOCC2)n1 [Compound N8N18D8] | 2.8 | 1.3
CCCCCCCCCCCCCCCCCCNc1nc(NCCCCCCCC)nc(NCCCN2CCN(C)CC2)n1 [Compound N8N18D9] | 0.0 | 1.2
CCCCCCCCCCCCCCCCCCNc1nc(NCCCCCCCC)nc(NCC2CCN(C)CC2)n1 [Compound N8N18D10] | 5.0 | 1.4
CCCCCCCCCNc1nc(NCCCCCCCCC)nc(NCCN(C)C)n1 [Compound N9N9D1] | 0.5 | 0.2
CCCCCCCCCNc1nc(NCCCCCCCCC)nc(NCCN2CCOCC2)n1 [Compound N9N9D2] | 0.1 | 0.0
CCCCCCCCCNc1nc(NCCCCCCCCC)nc(NCCN2CCCC2)n1 [Compound N9N9D3] | 0.2 | 0.3
CCCCCCCCCNc1nc(NCCCCCCCCC)nc(NCCN2CCCCC2)n1 [Compound N9N9D4] | 0.6 | 0.0
CCCCCCCCCNc1nc(NCCCCCCCCC)nc(NCCN2CCN(C)CC2)n1 [Compound N9N9D5] | 0.1 | 0.0
CCCCCCCCCNc1nc(NCCCCCCCCC)nc(NCCCN(C)C)n1 [Compound N9N9D6] | 0.4 | 0.2
CCCCCCCCCNc1nc(NCCCCCCCCC)nc(NCCN(CC)CC)n1 [Compound N9N9D7] | 0.3 | 0.0
